Source: patent publication US20180243421A1, “IMMUNOSTIMULATING AGENT” (AJINOMOTO CO., INC., priority 2015, published 2018)

Experiments:
[1] = test system: anti-OVA-specific IgG1 subclass antibody; experiment: Adjuvant activity: anti-OVA-specific IgG1 subclass antibody in serum after secondary immunization (Examples 1, 5, 7, 8; ELISA absorbance); format: in vivo, BALB/c mice
Description: Two weeks from the secondary immunization, the whole blood was extracted under anesthesia, and the obtained serum sample was measured for anti-OVA-specific IgG1 subclass antibody.
A method for measurement of the anti-OVA-specific IgG1 subclass antibody in Example 1, and the following Examples 5, 7 and 8 is as follows.
Measurement Method of anti-OVA-specific IgG1 Subclass Antibody
To a 96 well plate was added 5 μg/ml OVA at 100 μl/well, and the mixture was incubated at 4° C. overnight. After incubation, the mixture was washed three times with 200 μl of PBS-T (PBS+0.05%(v/v) Tween 20) per well, and blocked with 100 μl of 5% FCS/PBS solution per well at room temperature for 1 to 2 hr. Thereafter, the mixture was washed three times with PBS-T (200 μl/well), a diluted serum sample (100 μl/well) or the same amount of 5% FCS/PBS solution as a control was added, and the mixture was incubated at 37° C. for 1 hr. Thereafter, the mixture was washed five times with PBS-T (200 μl/well), a diluted biotinylated anti-mouse IgG1 antibody (100 μl/well) was added, and the mixture was incubated at 37° C. for 45 min. Thereafter, the mixture was washed five times with PBS-T (200 μl/well), a diluted anti-biotin-HRP antibody was added (100 μl/well), and the mixture was incubated at 37° C. for another 30 min. Thereafter, the mixture was washed five times with PBS-T (200 μl/well), TMB substrate solution was added (100 μl/well), and the mixture was incubated at room temperature for 10 to 15 min. Thereafter, a reaction quenching liquid (2N sulfuric acid solution) was added (50 μl/well) to discontinue a color developing reaction, and the absorbance (OD Value=450 nm) was measured by a microplate reader.

[2] = test system: anti-OVA-specific IgE antibody; details: mouse, in vivo
Description: The serum sample obtained in Example 1 was measured for an anti-OVA-specific IgE antibody. The measurement method of the anti-OVA-specific IgE antibody in Example 3 and Examples 6, 9 is as follows.
Measurement Method of anti-OVA-specific IgE Antibody
DS mouse IgE ELISA (OVA) kit manufactured by DS Pharma Biomedical Co., Ltd. was used. The protocol is briefly shown below.
The serum sample and a standard reagent for drawing an analytical curve are diluted with a buffer and, after stirring, left standing at room temperature for 10 min. The sample and the standard solution are added to a plate bound with an IgE capture antibody in advance and, after stirring, the mixture is left standing at room temperature for 60 min. The mixture is washed three times with wash, HRP-labeled OVA is added, and the mixture is left standing at room temperature for 30 min. The mixture is washed three times with wash, a substrate solution is added, and the mixture is left standing in dark at room temperature for 30 min. A reaction quenching liquid is added, the mixture is stirred, and the absorbance (OD Value=450 nm) is immediately measured.
This test was performed in the same manner as in Example 3 except that N^2-hexadecanoyl-L-arginine (SZ61), N-hexadecanoylagmatine (SZ62), N^2-hexadecanoyl-L-arginine methyl ester hydrochloride (SZ63), N^2-octadecanoyl-L-glutamine tert-butyl ester (SZ64), and N^2-octadecanoyl-L-glutamine (SZ65) were used.
This test was performed in the same manner as in Example 6 except that N-hexadecanoylagmatine (SZ62), N^2-octadecanoyl-L-glutamine tert-butyl ester (SZ64), N-docosanoyl-L-leucine methyl ester (SZ70), and N-docosanoyl-L-phenylalanine methyl ester (SZ71) were used and a positive control adjuvant Addavax™ (InvivoGen) administration group was formed.
(§1) The allergy inducing activity test was performed in the same manner as in Example 3 except that Addavax™, N-(2-octadecyleicosanoyl)-L-leucine methyl ester (SZ86), N-hexadecanoyl-L-leucinamide (SZ90), N^2-hexadecanoyl-N^1,N^1-diethyl-L-leucinamide (SZ92), N^2-hexadecanoyl-L-arginine hexyl ester hydrochloride (SZ99) and N^2-docosanoyl-N^1,N^1-diethyl-L-glutamic acid 1-amide (SZ106) were used.
as §1, with “N-hexadecanoyl-L-leucine” for “N^2-hexadecanoyl-L-arginine”, “(SZ97),” for “hydrochloride (SZ99) and”, “(SZ106) and N-docosanoylagmatine hydrochloride (SZ108)” for “(SZ106)”
8-Week-old female BALB/c mice were divided into groups (N=6), and each group was primarily immunized by dorsal-subcutaneous administration of (1) ovalbumin (OVA) (5 μg) dissolved in saline as an antigen (OVA single administration group), (2) OVA (10 μg) and aluminum hydroxide salt dissolved in saline (Alum administration group), (3) OVA 10 μg and Addavax™ (mixed with saline at 1:1) dissolved in saline (Addavax™ administration group), (4) OVA 10 μg and CpG 5 μg dissolved in saline (CpG administration group), (5) OVA 10 μg and MPL 5 μg dissolved in saline (MPL administration group), (6) OVA (5 μg) and SZ62 (0.256 μmol) dissolved or dispersed in 5% αCD-added saline (SZ62 administration group), (7) OVA (5 μg), SZ62 (0.256 μmol) and CpG 5 μg dissolved or dispersed in 5% αCD-added saline (SZ62+CpG administration group), (8) OVA 10 μg, Addavax™ (mixed with saline at 1:1) and CpG 5 μg dissolved in saline (Addavax™+CpG administration group), (9) OVA (5 μg), SZ62 (0.256 μmol) and MPL 5 μg dissolved or dispersed in 5% αCD-added saline (SZ62+MPL administration group), (10) OVA (10 μg), aluminum hydroxide salt (Alum) and MPL 5 μg dissolved in saline (Alum+MPL administration group), each per mouse. One week later, the secondary immunization was carried out by dorsal-subcutaneous administration of solutions or dispersions similar to those of the above-mentioned (1) to (10) again.

[3] = Example 8, same manner as Example 7
[4] = Example 5, same manner as Example 1
[5] = Example 7, same manner as Example 1, plus Addavax group

Compound	adjuvant activity (IgG1) compared with Alum ([1]; Example 8)	anti-OVA-specific IgG1 subclass antibody production as compared to the OVA single administration group [1, 3]	adjuvant activity (IgG1) compared with Alum ([1]; Example 7)	anti-OVA-specific IgG1 subclass antibody production as compared to the OVA single administration group [1, 5]	other results
CCCCCCCCCCCCCCCC(=O)NCC(=O)OC [SZ78, N-hexadecanoyl glycine methyl ester]	equivalent to or not less than that of Alum	a significant difference was not found	–	–	anti-OVA-specific IgG1 subclass antibody production compared with Alum ([1]; Example 8): equivalent to that of Alum
CCCCCCCCCCCCCCCC(=O)N[C@@H](CCCCN)C(=O)OC.O=C(O)C(F)(F)F [SZ81, N^2-hexadecanoyl-L-lysine methyl ester trifluoroacetic acid salt]	equivalent to or not less than that of Alum	a significant difference was not found	–	–	anti-OVA-specific IgG1 subclass antibody production compared with Alum ([1]; Example 8): equivalent to that of Alum
CCCCCCCCCCCCCCCCCC(=O)N[C@@H](CCC(N)=O)C(=O)O [SZ65, N^2-octadecanoyl-L-glutamine]	–	–	–	–	adjuvant activity (IgG1) compared with Alum ([1]; Example 5): equivalent to or not less than that of Alum; anti-OVA-specific IgG1 subclass antibody production as compared to the OVA single administration group [1, 4]: significantly increased; allergy inducing activity as compared to aluminum hydroxide gel adjuvant [2]: lower allergy inducing activity; anti-OVA-specific IgE antibody production as compared to the OVA single administration group [2]: a significant increase in the anti-OVA-specific IgE antibody production was not observed
CCCCCCCCCCCCCCCC(=O)N[C@@H](CCCNC(=N)N)C(=O)OC.Cl [SZ63, N^2-hexadecanoyl-L-arginine methyl ester hydrochloride]	equivalent to or not less than that of Alum	significantly increased	–	–	adjuvant activity (IgG1) compared with Alum ([1]; Example 5): equivalent to or not less than that of Alum; anti-OVA-specific IgG1 subclass antibody production as compared to the OVA single administration group [1, 4]: significantly increased; allergy inducing activity as compared to aluminum hydroxide gel adjuvant [2]: lower allergy inducing activity; anti-OVA-specific IgE antibody production as compared to the OVA single administration group [2]: a significant increase in the anti-OVA-specific IgE antibody production was not observed
CCCCCCCCCCCCCCCC(=O)N[C@@H](Cc1ccccc1)C(=O)OC [SZ80, N-hexadecanoyl-L-phenylalanine methyl ester]	equivalent to or not less than that of Alum	significantly increased	–	–	–
CCCCCCCCCCCCCCCCCCCCCC(=O)N[C@@H](CCCCN)C(=O)OC.O=C(O)C(F)(F)F [SZ73, N^2-docosanoyl-L-lysine methyl ester trifluoroacetic acid salt]	–	–	equivalent to or not less than that of Alum	significantly increased	–
CCCCCCCCCCCCCCCCCCCCCC(=O)N[C@@H](Cc1ccccc1)C(=O)OC [SZ71, N-docosanoyl-L-phenylalanine methyl ester]	–	–	equivalent to or not less than that of Alum	a significant difference was not found	anti-OVA-specific IgG1 subclass antibody production compared with Alum ([1]; Example 7): equivalent to or not less than that of Alum; allergy inducing activity as compared to aluminum hydroxide gel adjuvant and Addavax [2]: lower allergy inducing activity
CCCCCCCCCCCCCCCC(=O)N[C@@H](CCCNC(=N)N)C(=O)O [SZ61, N^2-hexadecanoyl-L-arginine]	–	–	–	–	allergy inducing activity as compared to aluminum hydroxide gel adjuvant [2]: lower allergy inducing activity; anti-OVA-specific IgE antibody production as compared to the OVA single administration group [2]: a significant increase in the anti-OVA-specific IgE antibody production was not observed
CCCCCCCCCCCCCCCCCCCCCC(=O)N[C@H](C(=O)OC)C(C)C [SZ77, N-docosanoyl-L-valine methyl ester]	–	–	equivalent to or not less than that of Alum	significantly increased	–
CCCCCCCCCCCCCCCCCCCCCC(=O)N[C@@H](CCC(=O)O)C(=O)OC [SZ72, N-docosanoyl-L-glutamic acid 1-methyl ester]	–	–	equivalent to or not less than that of Alum	significantly increased	–
CCCCCCCCCCCCCCCC(=O)N[C@@H](CC(C)C)C(=O)OC [SZ79, N-hexadecanoyl-L-leucine methyl ester]	equivalent to or not less than that of Alum	a significant difference was not found	–	–	anti-OVA-specific IgG1 subclass antibody production compared with Alum ([1]; Example 8): equivalent to that of Alum
Alum [reference compound]	–	–	–	–	anti-OVA-specific IgE antibody production as compared to the OVA single administration group [2]: significantly increased
CCCCCCCCCCCCCCCCCCCCCC(=O)N[C@H](C(=O)OC)[C@@H](C)CC [SZ76, N-docosanoyl-L-isoleucine methyl ester]	–	–	equivalent to or not less than that of Alum	significantly increased	–
CCCCCCCCCCCCCCCCCCCCCC(=O)NCC(=O)OC [SZ69, N-docosanoyl glycine methyl ester]	–	–	equivalent to or not less than that of Alum	significantly increased	–
CCCCCCCCCCCCCCCC(=O)N[C@@H](CCC(=O)O)C(=O)OC [SZ82, N-hexadecanoyl-L-glutamic acid 1-methyl ester]	equivalent to or not less than that of Alum	significantly increased	–	–	–
